These results are taken from US20140256664A1, “COMPOSITIONS AND METHODS FOR A MYCOBACTERIUM TUBERCULOSIS DRUG SUSCEPTIBILITY TEST” (priority 2011, published 2014).

What all share (format): cell-based, Mycobacterium tuberculosis
In assay [1] the test system is 33 isolates of M. tuberculosis.
For assay [2], the system named is M. tuberculosis isolates.
Assay [3] concerns M. tuberculosis isolates. The source holds these as a separate data set.
For assay [4], the system named is clinical MDR strain (INH, RIF, EMB, STR resistant).

“And” between values parts separate entries of the source, which are not always exact repeats. Equal values may be shown once. Where a name gives a salt, the structure may show the parent alone. Read-outs that look alike come from different tables or passages of the source.

As for `NCC[C@H](O)C(=O)N[C@@H]1C[C@H](N)[C@@H](O[C@H]2O[C@H](CN)[C@@H](O)[C@H](O)[C@H]2O)[C@H](O)[C@H]1O[C@H]1O[C@H](CO)[C@@H](O)[C@H](N)[C@H]1O` [Amikacin, amikacin], in assay [1], the “D29 phage assay Resistant (n isolates)” value was 1(−2.9) and 1(2.4); the “D29 phage assay susceptible (n isolates)” value stood at 0; the “ΔCt of D29 phage assay resistant isolates” value was 1(−2.9) and 1(2.4). Further, the “D29 phage assay Resistant (n isolates)” value in assay [1] (listed as AMK) was 0. Besides, in assay [2], the “Agar proportion Resistant (n isolates)” value is 1(16) and 1(8); the “Agar proportion susceptible (n isolates)” value is 0. The “Agar proportion Resistant (n isolates)” value in assay [2] (listed as AMK) was determined as 0. Further, in assay [3], the “MIC of agar proportion resistant isolates” value is 1(16) μg/ml and 1(8) μg/ml.
With `CC[C@@H](CO)NCCN[C@@H](CC)CO` [Ethambutol, ethambutol hydrochloride], the “D29 phage assay Resistant (n isolates)” value in assay [1] (listed as EMB, hydrochloride) came to 0. Besides, the “Agar proportion Resistant (n isolates)” value in assay [2] (listed as EMB, hydrochloride) worked out at 0.
As for `NNC(=O)c1ccncc1` [Isoniazid, isoniazid], in assay [4], the “number of phage / real-time PCR Ct value after drug pre-treatment” value is listed as “the phage number increased/Ct value decreased”. Moreover, in assay [1], the “D29 phage assay susceptible (n isolates)” value came to 0. In addition, in assay [1] (listed as INH), the “D29 phage assay Resistant (n isolates)” value was 1 and 2. In addition, in assay [2], the “Agar proportion susceptible (n isolates)” value was found to be 0.
Turning to `CO[C@H]1/C=C/O[C@@]2(C)Oc3c(C)c(O)c4c(O)c(c(/C=N/N5CCN(C)CC5)c(O)c4c3C2=O)NC(=O)/C(C)=C\C=C\[C@H](C)[C@H](O)[C@@H](C)[C@@H](O)[C@@H](C)[C@H](OC(C)=O)[C@@H]1C` [Rifampin, rifampin], in assay [4], the “number of phage / real-time PCR Ct value after drug pre-treatment” value is listed as “the phage number increased/Ct value decreased”. Further, the “ΔCtRIF (Ct control−Ct drug)” value in assay [4] ([…], drug, Tb inoculum and phage added at once, 24 h) is on record as −1. Further, the “D29 phage assay susceptible (n isolates)” value in assay [1] is given as 0. In addition, the “Agar proportion susceptible (n isolates)” value in assay [2] was found to be 0.
Regarding capreomycin sulfate, in assay [1], the “D29 phage assay Resistant (n isolates)” value was 1(−5.4) and 1(−3.3); the “D29 phage assay susceptible (n isolates)” value is 0; the “ΔCt of D29 phage assay resistant isolates” value was 1(−5.4) and 1(−3.3). Besides, in assay [1] (listed as CAP), the “D29 phage assay Resistant (n isolates)” value was 1 and the “ΔCt of D29 phage assay resistant isolates” value is on record as −5.4. For the same compound, in assay [2], the “Agar proportion Resistant (n isolates)” value is recorded as 1(ND) and the “Agar proportion susceptible (n isolates)” value was found to be 0. For the same compound, the “Agar proportion Resistant (n isolates)” value in assay [2] (listed as CAP) turned out to be 0.
